Data: US5635356A, “Anti-oncoimmunin-M antibodies and uses thereof” (The United States of America as represented by the …, priority 1994, dated 1997)

Test system: Oncoimmunin-M treated HL-60 cells
Assay: Chemotaxis in multiwell microchemotaxis chamber
Type: cell-based, human
Settings: HL-60 cells exposed to Oncoimmunin-M (2 nM) for two days; f-Met-Leu-Phe 10^-10 to 10^-6 M; 3 hr, 37° C.; FIG. 22C
Procedure: To assess whether the Oncoimmunin-M induced alterations in integrin expression are associated with the induction of a biologic activity which could serve a role in antitumor or antimicrobial function, HL-60 cells that had been exposed to Oncoimmunin-M (2 nM) for two days were assayed for chemotactic ability. Specifically, the treated cells were placed in a multiwell microchemotaxis chamber and assayed for their ability to migrate in response to a gradient of the chemoattractant recombinant human C5a (rHuC5a), recombinant interleukin-8, and the peptide f-Met-Leu-Phe.
Cells were suspended in the serum-free medium (SFM) at a concentration of 5×10^5 cells/ml. Assays in which the total number of cells migrating through the polyvinylpyrrolidone-free polycarbonate membranes (5 μm pores; Nucleopore Corp., Pleasanton, Calif.) were performed for 3 hr in a 37° C. incubator containing 5% CO2. After incubation, nonmigrated cells were wiped off the filters which were then fixed in methanol and stained with Diff-Quik (Dade Diagnostics, Inc., Aguada, Puerto Rico). Migrated cells were counted with an Optomax System 40-10 Image Analyzer (Optomax, Inc., Hollis, N.H., U.S.A.). Random migration was determined by quantifying cell migration to serum-free medium alone.

In the case of CSCC[C@H](NC=O)C(=O)N[C@@H](CC(C)C)C(=O)N[C@@H](Cc1ccccc1)C(=O)O [f-Met-Leu-Phe], the “migratory (chemotactic) response to chemoattractant gradient” value is reported as “no significant response”.
